Data as given in ChEMBL document CHEMBL4507317, “Data for DCP probe BAY-899” (2021).

What was measured:
[1] = biological target: Tyrosine-protein kinase ABL2 (Homo sapiens) (UniProt P42684); conditions: Compound concentration 1000.0 nM
[2] = biological target: Activin receptor type-2A (Homo sapiens) (UniProt P27037); conditions: Compound concentration 1000.0 nM
[3] = biological target: Ankyrin repeat and protein kinase domain-containing protein 1 (Homo sapiens) (UniProt Q8NFD2); conditions: Compound concentration 1000.0 nM
[4] = biological target: Aurora kinase B (Homo sapiens) (UniProt Q96GD4); conditions: Compound concentration 1000.0 nM
[5] = biological target: Calcium/calmodulin-dependent protein kinase type II subunit alpha (Homo sapiens) (UniProt Q9UQM7); conditions: Compound concentration 1000.0 nM
Calcium/calmodulin-dependent protein kinase type II subunit alpha (Homo sapiens), sequence (Q9UQM7 whole entry): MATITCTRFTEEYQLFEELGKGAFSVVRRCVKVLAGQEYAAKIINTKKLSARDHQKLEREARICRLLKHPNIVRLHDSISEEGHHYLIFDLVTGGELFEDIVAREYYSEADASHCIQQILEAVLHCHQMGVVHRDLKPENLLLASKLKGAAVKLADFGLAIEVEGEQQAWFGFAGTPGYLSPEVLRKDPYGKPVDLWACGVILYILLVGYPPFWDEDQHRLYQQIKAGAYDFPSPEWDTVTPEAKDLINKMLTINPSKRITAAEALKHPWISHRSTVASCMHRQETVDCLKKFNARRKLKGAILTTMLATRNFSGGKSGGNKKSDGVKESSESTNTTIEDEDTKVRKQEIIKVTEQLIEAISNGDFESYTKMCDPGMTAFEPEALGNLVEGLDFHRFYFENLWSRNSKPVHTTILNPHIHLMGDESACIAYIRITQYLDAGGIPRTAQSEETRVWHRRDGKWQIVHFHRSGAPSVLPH

[6] = biological target: Cyclin-dependent kinase-like 1 (Homo sapiens) (UniProt Q00532); conditions: Compound concentration 1000.0 nM
[7] = biological target: Citron Rho-interacting kinase (Homo sapiens) (UniProt O14578); conditions: Compound concentration 1000.0 nM
Citron Rho-interacting kinase (Homo sapiens), sequence (O14578 whole entry, canonical isoform): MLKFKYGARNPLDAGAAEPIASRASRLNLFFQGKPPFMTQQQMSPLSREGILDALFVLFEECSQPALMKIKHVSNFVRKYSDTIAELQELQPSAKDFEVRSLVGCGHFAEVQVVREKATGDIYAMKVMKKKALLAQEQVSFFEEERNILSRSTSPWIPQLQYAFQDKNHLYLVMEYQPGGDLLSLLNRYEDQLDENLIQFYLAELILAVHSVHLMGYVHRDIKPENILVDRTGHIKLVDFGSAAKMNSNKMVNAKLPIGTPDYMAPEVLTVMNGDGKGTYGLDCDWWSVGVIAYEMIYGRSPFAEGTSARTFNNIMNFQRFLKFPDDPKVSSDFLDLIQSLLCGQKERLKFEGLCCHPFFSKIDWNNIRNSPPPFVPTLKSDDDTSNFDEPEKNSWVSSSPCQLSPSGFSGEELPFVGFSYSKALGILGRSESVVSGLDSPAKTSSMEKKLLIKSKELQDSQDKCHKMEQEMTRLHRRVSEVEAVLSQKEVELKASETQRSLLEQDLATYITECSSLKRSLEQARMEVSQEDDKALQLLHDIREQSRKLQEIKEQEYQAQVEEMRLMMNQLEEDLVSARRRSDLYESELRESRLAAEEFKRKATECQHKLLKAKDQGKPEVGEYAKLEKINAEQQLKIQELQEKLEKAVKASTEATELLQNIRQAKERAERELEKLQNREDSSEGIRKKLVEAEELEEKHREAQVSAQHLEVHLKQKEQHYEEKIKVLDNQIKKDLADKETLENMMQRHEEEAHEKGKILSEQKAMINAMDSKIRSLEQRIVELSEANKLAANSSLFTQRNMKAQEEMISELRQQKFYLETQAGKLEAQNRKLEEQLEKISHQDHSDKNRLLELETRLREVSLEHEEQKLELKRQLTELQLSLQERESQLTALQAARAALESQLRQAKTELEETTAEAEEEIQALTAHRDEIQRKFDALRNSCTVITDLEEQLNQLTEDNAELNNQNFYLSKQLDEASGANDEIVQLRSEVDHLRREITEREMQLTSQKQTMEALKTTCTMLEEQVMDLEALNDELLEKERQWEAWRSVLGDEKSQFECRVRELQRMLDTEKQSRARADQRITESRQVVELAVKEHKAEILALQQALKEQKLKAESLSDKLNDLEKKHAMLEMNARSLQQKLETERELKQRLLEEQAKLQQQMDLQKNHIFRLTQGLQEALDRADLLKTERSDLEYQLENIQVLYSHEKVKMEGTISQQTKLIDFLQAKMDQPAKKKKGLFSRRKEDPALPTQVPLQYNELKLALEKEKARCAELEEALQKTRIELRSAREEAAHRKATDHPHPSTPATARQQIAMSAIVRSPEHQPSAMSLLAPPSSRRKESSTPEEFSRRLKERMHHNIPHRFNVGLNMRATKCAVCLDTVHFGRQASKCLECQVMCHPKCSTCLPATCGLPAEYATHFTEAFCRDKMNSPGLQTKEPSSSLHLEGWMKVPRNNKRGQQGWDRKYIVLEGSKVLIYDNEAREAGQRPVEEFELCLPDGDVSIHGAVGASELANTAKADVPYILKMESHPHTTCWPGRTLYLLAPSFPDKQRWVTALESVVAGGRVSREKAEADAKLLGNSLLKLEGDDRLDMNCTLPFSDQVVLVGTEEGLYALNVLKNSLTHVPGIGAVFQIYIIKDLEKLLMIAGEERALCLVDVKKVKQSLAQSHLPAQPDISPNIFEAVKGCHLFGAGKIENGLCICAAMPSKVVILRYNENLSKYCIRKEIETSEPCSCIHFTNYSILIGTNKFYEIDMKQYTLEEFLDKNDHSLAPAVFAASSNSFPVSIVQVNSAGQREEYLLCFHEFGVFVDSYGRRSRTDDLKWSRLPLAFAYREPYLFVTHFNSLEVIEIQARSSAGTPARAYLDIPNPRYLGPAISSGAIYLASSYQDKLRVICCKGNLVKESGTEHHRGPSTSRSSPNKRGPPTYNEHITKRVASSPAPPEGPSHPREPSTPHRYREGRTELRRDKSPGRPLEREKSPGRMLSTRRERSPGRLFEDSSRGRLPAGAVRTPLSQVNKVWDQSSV

[8] = biological target: Casein kinase I isoform epsilon (Homo sapiens) (UniProt P49674); conditions: Compound concentration 1000.0 nM
[9] = biological target: Mitogen-activated protein kinase kinase kinase 12 (Homo sapiens) (UniProt Q12852); conditions: Compound concentration 1000.0 nM
[10] = biological target: Dual specificity tyrosine-phosphorylation-regulated kinase 2 (Homo sapiens) (UniProt Q92630); conditions: Compound concentration 1000.0 nM
[11] = biological target: Epidermal growth factor receptor (Homo sapiens) (UniProt P00533); conditions: Compound concentration 1000.0 nM
[12] = biological target: Mitogen-activated protein kinase 3 (Homo sapiens) (UniProt P27361); conditions: Compound concentration 1000.0 nM
[13] = biological target: Mitogen-activated protein kinase 15 (Homo sapiens) (UniProt Q8TD08); conditions: Compound concentration 1000.0 nM
[14] = biological target: Hormonally up-regulated neu tumor-associated kinase (Homo sapiens) (UniProt P57058); conditions: Compound concentration 1000.0 nM
[15] = biological target: Mitogen-activated protein kinase 8 (Homo sapiens) (UniProt P45983); conditions: Compound concentration 1000.0 nM
[16] = biological target: Mitogen-activated protein kinase kinase kinase 15 (Homo sapiens) (UniProt Q6ZN16); conditions: Compound concentration 1000.0 nM
[17] = biological target: Maternal embryonic leucine zipper kinase (Homo sapiens) (UniProt Q14680); conditions: Compound concentration 1000.0 nM
[18] = biological target: Serine/threonine-protein kinase Nek9 (Homo sapiens) (UniProt Q8TD19); conditions: Compound concentration 1000.0 nM
[19] = biological target: Serine/threonine-protein kinase OSR1 (Homo sapiens) (UniProt O95747); conditions: Compound concentration 1000.0 nM
[20] = biological target: Mitogen-activated protein kinase 12 (Homo sapiens) (UniProt P53778); conditions: Compound concentration 1000.0 nM
[21] = system: Phosphatidylinositol 4,5-bisphosphate 3-kinase catalytic subunit alpha isoform (Homo sapiens), P42336 [E545K]; conditions: Compound concentration 1000.0 nM
[22] = biological target: cAMP-dependent protein kinase catalytic subunit alpha (Homo sapiens) (UniProt P17612); conditions: Compound concentration 1000.0 nM
[23] = biological target: cAMP-dependent protein kinase catalytic subunit beta (Homo sapiens) (UniProt P22694); conditions: Compound concentration 1000.0 nM
[24] = biological target: Protein kinase C epsilon type (Homo sapiens) (UniProt Q02156); conditions: Compound concentration 1000.0 nM
Protein kinase C epsilon type (Homo sapiens), sequence (Q02156 whole entry): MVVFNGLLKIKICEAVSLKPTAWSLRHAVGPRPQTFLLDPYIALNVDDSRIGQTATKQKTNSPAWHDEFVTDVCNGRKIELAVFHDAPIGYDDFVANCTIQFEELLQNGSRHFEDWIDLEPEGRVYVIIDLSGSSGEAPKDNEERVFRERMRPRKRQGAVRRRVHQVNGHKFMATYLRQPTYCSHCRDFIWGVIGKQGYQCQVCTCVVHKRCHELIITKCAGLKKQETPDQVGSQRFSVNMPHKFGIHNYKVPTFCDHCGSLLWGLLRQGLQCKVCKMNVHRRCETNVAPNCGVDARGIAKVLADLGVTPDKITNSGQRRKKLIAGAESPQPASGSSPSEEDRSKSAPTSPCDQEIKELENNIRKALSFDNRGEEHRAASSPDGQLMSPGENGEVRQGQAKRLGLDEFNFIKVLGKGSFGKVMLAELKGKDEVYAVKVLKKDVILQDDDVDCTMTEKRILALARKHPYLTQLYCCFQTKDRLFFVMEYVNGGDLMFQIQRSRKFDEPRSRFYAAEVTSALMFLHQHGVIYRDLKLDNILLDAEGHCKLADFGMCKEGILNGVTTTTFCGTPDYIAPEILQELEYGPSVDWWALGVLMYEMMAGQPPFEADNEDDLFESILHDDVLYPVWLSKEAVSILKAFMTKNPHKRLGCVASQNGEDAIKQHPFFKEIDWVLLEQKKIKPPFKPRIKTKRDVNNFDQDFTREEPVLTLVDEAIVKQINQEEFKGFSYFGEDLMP

[25] = biological target: Interferon-induced, double-stranded RNA-activated protein kinase (Homo sapiens) (UniProt P19525); conditions: Compound concentration 1000.0 nM
[26] = biological target: Proto-oncogene tyrosine-protein kinase ROS (Homo sapiens) (UniProt P08922); conditions: Compound concentration 1000.0 nM
[27] = biological target: Ribosomal protein S6 kinase alpha-5 (Homo sapiens) (UniProt O75582); conditions: Compound concentration 1000.0 nM
[28] = biological target: Ribosomal protein S6 kinase alpha-1 (Homo sapiens) (UniProt Q15418); conditions: Compound concentration 1000.0 nM
Ribosomal protein S6 kinase alpha-1 (Homo sapiens), sequence (Q15418 whole entry): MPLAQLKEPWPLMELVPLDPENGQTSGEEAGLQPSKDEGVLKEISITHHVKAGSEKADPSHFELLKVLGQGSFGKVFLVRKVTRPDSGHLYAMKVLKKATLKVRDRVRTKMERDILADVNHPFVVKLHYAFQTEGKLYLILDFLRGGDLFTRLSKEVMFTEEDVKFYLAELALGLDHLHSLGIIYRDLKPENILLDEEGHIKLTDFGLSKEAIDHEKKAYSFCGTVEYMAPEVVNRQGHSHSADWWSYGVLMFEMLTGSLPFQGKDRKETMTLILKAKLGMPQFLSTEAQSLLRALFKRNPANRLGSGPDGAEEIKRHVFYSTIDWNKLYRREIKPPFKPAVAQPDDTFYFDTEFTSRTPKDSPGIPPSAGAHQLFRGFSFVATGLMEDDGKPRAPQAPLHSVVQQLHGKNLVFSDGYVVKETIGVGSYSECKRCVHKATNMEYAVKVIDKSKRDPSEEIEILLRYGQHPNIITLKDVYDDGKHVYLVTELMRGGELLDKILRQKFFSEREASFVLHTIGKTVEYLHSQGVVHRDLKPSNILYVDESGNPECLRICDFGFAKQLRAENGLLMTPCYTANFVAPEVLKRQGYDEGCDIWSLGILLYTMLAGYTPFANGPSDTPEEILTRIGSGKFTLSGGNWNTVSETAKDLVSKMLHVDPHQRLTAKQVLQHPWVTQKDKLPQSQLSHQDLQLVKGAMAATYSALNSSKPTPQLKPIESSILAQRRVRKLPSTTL

[29] = biological target: Ribosomal protein S6 kinase alpha-3 (Homo sapiens) (UniProt P51812); conditions: Compound concentration 1000.0 nM
[30] = biological target: SNF-related serine/threonine-protein kinase (Homo sapiens) (UniProt Q9NRH2); conditions: Compound concentration 1000.0 nM
[31] = biological target: Activated CDC42 kinase 1 (Homo sapiens) (UniProt Q07912); conditions: Compound concentration 1000.0 nM
[32] = biological target: Dual specificity protein kinase TTK (Homo sapiens) (UniProt P33981); conditions: Compound concentration 1000.0 nM
[33] = biological target: Tyrosine-protein kinase receptor TYRO3 (Homo sapiens) (UniProt Q06418); conditions: Compound concentration 1000.0 nM
[34] = biological target: Wee1-like protein kinase 2 (Homo sapiens) (UniProt P0C1S8); conditions: Compound concentration 1000.0 nM
[35] = biological target: 5-hydroxytryptamine receptor 2A (Homo sapiens, UniProt P28223); conditions: Compound concentration 10.0 uM
[36] = biological target: 5-hydroxytryptamine receptor 3A (Homo sapiens) (UniProt P46098); conditions: Compound concentration 10.0 uM
5-hydroxytryptamine receptor 3A (Homo sapiens), sequence (P46098 whole entry): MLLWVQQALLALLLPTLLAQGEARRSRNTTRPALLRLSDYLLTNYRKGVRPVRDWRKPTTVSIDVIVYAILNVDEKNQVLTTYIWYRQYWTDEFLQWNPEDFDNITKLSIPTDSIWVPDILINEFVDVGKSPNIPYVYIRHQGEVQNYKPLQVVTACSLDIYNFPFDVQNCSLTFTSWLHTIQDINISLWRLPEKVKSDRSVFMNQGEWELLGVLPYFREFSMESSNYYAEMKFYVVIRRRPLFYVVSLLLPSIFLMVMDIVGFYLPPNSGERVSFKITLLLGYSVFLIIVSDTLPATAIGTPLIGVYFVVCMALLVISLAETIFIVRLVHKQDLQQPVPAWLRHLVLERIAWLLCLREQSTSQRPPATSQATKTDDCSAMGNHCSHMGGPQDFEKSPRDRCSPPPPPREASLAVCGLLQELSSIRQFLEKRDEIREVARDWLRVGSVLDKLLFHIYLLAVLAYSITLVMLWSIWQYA

[37] = biological target: D(1A) dopamine receptor (Homo sapiens) (UniProt P21728); conditions: Compound concentration 10.0 uM
D(1A) dopamine receptor (Homo sapiens), sequence (P21728 whole entry): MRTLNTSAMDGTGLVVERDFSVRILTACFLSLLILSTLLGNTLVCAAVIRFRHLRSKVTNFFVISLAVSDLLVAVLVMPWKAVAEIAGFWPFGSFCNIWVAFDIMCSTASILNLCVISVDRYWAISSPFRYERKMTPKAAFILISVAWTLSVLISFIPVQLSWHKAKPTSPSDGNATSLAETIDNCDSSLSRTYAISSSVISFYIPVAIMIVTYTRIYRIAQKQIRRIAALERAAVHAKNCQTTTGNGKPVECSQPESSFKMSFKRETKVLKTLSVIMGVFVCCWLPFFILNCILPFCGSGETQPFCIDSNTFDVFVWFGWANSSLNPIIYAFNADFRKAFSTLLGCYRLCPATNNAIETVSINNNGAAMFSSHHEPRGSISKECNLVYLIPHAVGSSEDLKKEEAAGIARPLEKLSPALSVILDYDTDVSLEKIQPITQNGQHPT

[38] = biological target: T1, Muscarinic acetylcholine receptor M4 (Homo sapiens) (UniProt P08173); conditions: Compound concentration 10.0 uM
T1 sequence (whole entry): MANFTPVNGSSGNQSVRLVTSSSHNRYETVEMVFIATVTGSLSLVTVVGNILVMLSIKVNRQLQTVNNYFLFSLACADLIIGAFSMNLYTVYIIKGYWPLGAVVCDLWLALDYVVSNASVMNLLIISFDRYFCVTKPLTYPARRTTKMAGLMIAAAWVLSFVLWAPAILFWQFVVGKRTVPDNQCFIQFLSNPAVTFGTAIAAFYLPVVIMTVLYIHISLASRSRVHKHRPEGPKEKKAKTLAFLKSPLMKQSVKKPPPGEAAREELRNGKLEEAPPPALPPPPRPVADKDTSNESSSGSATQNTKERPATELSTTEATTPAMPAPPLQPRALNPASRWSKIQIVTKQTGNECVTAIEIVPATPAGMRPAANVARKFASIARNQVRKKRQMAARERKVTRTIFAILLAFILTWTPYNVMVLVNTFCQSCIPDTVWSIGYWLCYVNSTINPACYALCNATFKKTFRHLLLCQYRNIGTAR

Rattus norvegicus = species on record: Rattus norvegicus; conditions: Compound concentration 10.0 uM

O=C(Nc1ccc(Oc2ccc(F)cc2)cc1)N1CCc2ncccc2[C@H]1c1ccc(F)cc1 [BAY-897]
residual activity [1]: 88%
residual activity [2]: 100%
residual activity [3]: 92%
residual activity [4]: 89%
residual activity [5]: 88%
residual activity [6]: 97%
residual activity [7]: 91%
residual activity [8]: 85%
residual activity [9]: 100%
residual activity [10]: 84%
residual activity [11]: 100%
residual activity [12]: 87%
residual activity [13]: 94%
residual activity [14]: 99%
residual activity [15]: 91%
residual activity [16]: 100%
residual activity [17]: 78%
residual activity [18]: 88%
residual activity [19]: 90%
residual activity [20]: 94%
residual activity [21]: 73%
residual activity [22]: 95%
residual activity [23]: 83%
residual activity [24]: 100%
residual activity [25]: 100%
residual activity [26]: 76%
residual activity [27]: 95%
residual activity [28]: 92%
residual activity [29]: 84%
residual activity [30]: 90%
residual activity [31]: 99%
residual activity [32]: 94%
residual activity [33]: 99%
residual activity [34]: 100%
inhibition [35]: 54.5%
inhibition [36]: 4.7%
inhibition [37]: 39.1%
inhibition [38]: 9.29%
inhibition (Rattus norvegicus): 33.4%

O=C(Nc1cnc(Oc2ccc(F)cc2)nc1)N1CCc2ncccc2[C@@H]1c1ccc(F)cc1 [BAY-899]
residual activity [1]: 78%
residual activity [2]: 83%
residual activity [3]: 100%
residual activity [4]: 80%
residual activity [5]: 92%
residual activity [6]: 100%
residual activity [7]: 88%
residual activity [8]: 66%
residual activity [9]: 100%
residual activity [10]: 81%
residual activity [11]: 100%
residual activity [12]: 92%
residual activity [13]: 93%
residual activity [14]: 100%
residual activity [15]: 83%
residual activity [16]: 100%
residual activity [17]: 66%
residual activity [18]: 90%
residual activity [19]: 93%
residual activity [20]: 96%
residual activity [21]: 63%
residual activity [22]: 82%
residual activity [23]: 85%
residual activity [24]: 100%
residual activity [25]: 73%
residual activity [26]: 82%
residual activity [27]: 85%
residual activity [28]: 76%
residual activity [29]: 97%
residual activity [30]: 90%
residual activity [31]: 93%
residual activity [32]: 86%
residual activity [33]: 100%
residual activity [34]: 95%
inhibition [35]: 8.72%
inhibition [36]: 45.8%
inhibition [37]: 23.7%
inhibition [38]: 22.8%
inhibition (Rattus norvegicus): 44.6%
